Source: patent publication US6362206B1, “Azole compounds, their production and use” (Takeda Chemical Industries, Ltd., priority 1995, dated 2002)

How the values were obtained:
[1] = test system: Candida albicans TA; test: Protective effect against Candida albicans infection in mice (oral, ED50 from survival rate); assay type: in vivo; conditions: Crj: CDF1 mice inoculated i.v. with minimum lethal dose of Candida albicans TA, single oral dose immediately after infection as 30% HPCD solution, Reed and Muench method from survival rate 7 days after infection; for ED50: 168 h
Experimental: Test Method: Five-week-old Crj: CDF1 mice were inoculated with the minimum lethal dose of Candida albicans TA intravenously. The test compounds were administered orally once immediately after infection as a 30% HPCD (hydroxypropyl-β-cyclodextrin) solution. The activity was expressed in terms of ED50 value calculated by the Reed and Muench method from the survival rate 7 days after infection.

Compound	ED50 (mg/kg) PO [1] [mg/kg]	ED50 [1] [mg/kg]	melting point [°C]
1-[(1R,2R)-2-(2,4-difluorophenyl)-2-hydroxy-1-methyl-3-(1H-1,2,4-triazol-17 yl)propyl]-3-[4-(1H-1,2,4-triazol-1-yl)phenyl]-2-imidazolidinone [Compound 10]	0.32	–	–
1-[(1R,2R)-2-(2,4-difluorophenyloy)-2-hydroxy-1-methyl-3-(1H-1,2,4-triazol-1-yl)propyl]-3-[4-(2H-1,2,3-triazol-2-yl)phenyl]-2-imidazolidinone [Compound 14]	0.32	–	–
1-[(1R,2R)-2-(2-fluorophenyl)-2:-hydroxy-1-methyl-3-(1H-1,2,4-triazol-1-yl)propyl]-3-[4-(1H-1-tetrazolyl)phenyl]-2(1H,3H)-imidazolone [Compound 44]	0.39	–	–
1-[((1R,2R)-2-(2,4-difluorophenyl)-2-hydroxy-1-methyl-3-(1H-1,2,4-triazol-1-yl)propyl]-3-[4-(1H-1,2,4-triazol-1-yl)phenyl]-2(1H,3H)-imidazolone [Compound 9]	0.16	–	–
C[C@@H](n1ncn(-c2ccc(-n3cncn3)cc2)c1=O)[C@](O)(Cn1cncn1)c1ccc(F)cc1F [Compound 5, 2-[(1R,2R)-2-(2,4-difluorophenyl)-2-hydroxy-1-methyl-3-(1H-1,2,4-triazol-1-yl)propyl]-4-[4-(1H-1,2,4-triazol-1-yl)phenyl]-3(2H,4H)-1,2,4-triazolone]	–	0.22	182 to 184
C[C@@H](n1ncn(-c2ccc(-n3ccnn3)cc2)c1=O)[C@](O)(Cn1cncn1)c1ccc(F)cc1F [Compound 6, 2-[(1R,2R)-2-(2,4-difluorophenyl)-2-hydroxy-1-methyl-3-(1H-1,2,4-triazol-1-yl)propyl]-4-[4-(1H-1,2,3-triazol-1-yl)phenyl]-3(2H,4H)-1,2,4-triazolone]	–	0.35	219 to 220
C[C@@H](n1ncn(-c2ccc(-n3nccn3)cc2)c1=O)[C@](O)(Cn1cncn1)c1ccc(F)cc1F [Compound 7, 2-[(1R,2R)-2-(2,4-difluorophenyl)-2-hydroxy-1-methyl-3-(1H-1,2,4-triazol-1-yl)propyl]-4-(4-(2H-1,2,3-triazol-2-yl)phenyl]-3(2H,4H)-1,2,4-triazolone]	–	0.096	213 to 215
C[C@@H](n1ccn(-c2ccc(-n3ccnn3)cc2)c1=O)[C@](O)(Cn1cncn1)c1ccc(F)cc1F [Compound 11, 1-[(1R,2R)-2-(2,4-difluorophenyl)-2-hydroxy-1-methyl-3-(1H-1,2,4-triazol-1-yl)propyl]-3-[4-(1H-1,2,3-triazol-1-yl)phenyl]-2(1H,3H)-imidazolone]	–	0.45	178 to 181
C[C@@H](N1CCN(c2ccc(-n3ccnn3)cc2)C1=O)[C@](O)(Cn1cncn1)c1ccc(F)cc1F [Compound 12, 1-[(1R,2R)-2-(2,4-difluorophenyl)-2-hydroxy-1-methyl-3-(1H-1,2,4-triazol-1-yl)propyl]-3-[4-(1H-1,2,3-triazol-1-yl)phenyl]-2-imidazolidinone]	–	0.71	–
C[C@@H](n1ccn(-c2ccc(-n3nccn3)cc2)c1=O)[C@](O)(Cn1cncn1)c1ccc(F)cc1F [Compound 13, 1-[(1R,2R)-2-(2,4-difluorophenyl)-2-hydroxy-1-methyl-3-(1H-1,2,4-triazol-1-yl)propyl]-3-[4-(2H-1,2,3-triazol-2-yl)phenyl]-2(1H,3H)-imidazolone]	–	0.18	182 to 185
C[C@@H](n1ncn(-c2ccc(-n3cccn3)cc2)c1=O)[C@](O)(Cn1cncn1)c1ccc(F)cc1F [Compound 19, 2-[(1R,2R)-2-(2,4-difluorophenyl)-2-hydroxy-1-methyl-3-(1H-1,2,4-triazol-1-yl)propyl]-4-[4-(1H-1-pyrazolyl)phenyl]-3(2H,4H)-1,2,4-triazolone]	–	0.39	–
C[C@@H](n1ncn(-c2ccc(-n3ncnn3)cc2)c1=O)[C@](O)(Cn1cncn1)c1ccc(F)cc1F [Compound 25, 2-[(1R,2R)-2-(2,4-difluorophenyl)-2-hydroxy-1-methyl-3-(1H-1,2,4-triazol-1-yl)propyl]-4-[4-(2H-2-tetrazolyl)phenyl]-3(2H,4H)-1,2,4-triazolone]	–	0.088	–
C[C@@H](n1ccn(-c2ccc(-n3ncnn3)cc2)c1=O)[C@](O)(Cn1cncn1)c1ccc(F)cc1F [Compound 26, 1-[(1R,2R)-2-(2,4-difluorophenyl)-2-hydroxy-1-methyl-3-(1H-1,2,4-triazol-1-yl)propyl]-3-[4-(2H-2-tetrazolyl)phenyl]-2(1H,3H)-imidazolone]	–	0.16	–
C[C@@H](N1CCN(c2ccc(-n3ncnn3)cc2)C1=O)[C@](O)(Cn1cncn1)c1ccc(F)cc1F [Compound 27, 1-[(1R,2R)-2-(2,4-difluorophenyl)-2-hydroxy-1-methyl-3-(1H-1,2,4-triazol-1-yl)propyl]-3-[4-(2H-2-tetrazolyl)phenyl]-2-imidazolidinone]	–	0.18	–
C[C@@H](N1CCN(c2ccc(-n3ccnn3)cc2)C1=O)[C@](O)(Cn1cncn1)c1ccccc1F [Compound 34, [(1R,2R)-2-(2-fluorophenyl)-2-hydroxy-1-methyl-3-(1H-1,2,4-triazol-1-yl)propyl]-3-[4-(1H-1,2,3-triazol-1-yl)phenyl]-2-imidazolidinone]	–	0.8	–
C[C@@H](N1CCN(c2ccc(-n3nccn3)cc2)C1=O)[C@](O)(Cn1cncn1)c1ccccc1F [Compound 35, 1-[(1R,2R)-2-(2-fluorophenyl)-2-hydroxy-1-methyl-3-(1H-1,2,4-triazol-1-yl)propyl]-3-[4-(2H-1,2,3-triazol-2-yl)phenyl]-2-imidazolidinone]	–	0.71	178 to 179
C[C@@H](n1ccn(-c2ccc(-n3cncn3)cc2)c1=O)[C@](O)(Cn1cncn1)c1ccccc1F [Compound 38, 1-[(1R,2R)-2-(2-fluorophenyl)-2-hydroxy-1-methyl-3-(1H-1,2,4-triazol-1-yl)propyl]-3-[4-[1H-1,2,4-triazol-1-yl)phenyl]-2(1H,3H)-imidazolone]	–	0.5	–
C[C@@H](N1CCN(c2ccc(-n3cncn3)cc2)C1=O)[C@](O)(Cn1cncn1)c1ccccc1F [Compound 39, 1-[(1R,2R)-2-(2-fluorophenyl)-2-hydroxy-1-methyl-3-(1H-1,2,4-triazol-1-yl)propyl]-3-[4-(1H-1,2,4-triazol-1-yl)phenyl]-2-imidazolidinone]	–	0.5	–
C[C@@H](n1ccn(-c2ccc(-n3ncnn3)cc2)c1=O)[C@](O)(Cn1cncn1)c1ccccc1F [Compound 40, 1-[(1R,2R)-2-(2-fluorophenyl)-2-hydroxy-1-methyl-3-(1H-1,2,4-triazol-1-yl)propyl]-3-[4-(2H-2-tetrazolyl)phenyl]-2(1H,3H)-imidazolone]	–	0.35	–
C[C@@H](N1CCN(c2ccc(-n3ncnn3)cc2)C1=O)[C@](O)(Cn1cncn1)c1ccccc1F [Compound 41, 1-[(1R,2R)-2-(2-fluorophenyl)-2-hydroxy-1-methyl-3-(1H-1,2,4-triazol-1-yl)propyl]-3-[4-(2H-2-tetrazolyl)phenyl]-2-imidazolidinone]	–	0.8	–
C[C@@H](n1ccn(-c2ccc(-n3cnnn3)cc2)c1=O)[C@](O)(Cn1cncn1)c1ccc(F)cc1F [Compound 42, 1-[(1R,2R)-2-(2,4-difluorophenyl)-2-hydroxy-1-methyl-3-(1H-1,2,4-triazol-1-yl)propyl]-3-[4-(1H-1-tetrazolyl)phenyl]-2(1H,3H)-imidazolone]	–	0.22	–
C[C@@H](N1CCN(c2ccc(-n3cnnn3)cc2)C1=O)[C@](O)(Cn1cncn1)c1ccc(F)cc1F [Compound 43, 1-[(1R,2R)-2-(2,4— difluorophenyl)-2-hydroxy-1-methyl-3-(1H-1,2,4-triazol-1-yl)propyl]-3-[4-(1H-1-tetrazolyl)phenyl]-2-imidazolidinone]	–	0.89	–
C[C@@H](N1CCN(c2ccc(-n3cnnn3)cc2)C1=O)[C@](O)(Cn1cncn1)c1ccccc1F [Compound 45, 1-[(1R,2R)-2-(2-fluorophenyl)-2-hydroxy-1-methyl-3-(1H-1,2,4-triazol-1-yl)propyl]-3-[4-(1H-1-tetrazolyl)phenyl]-2-imidazolidinone]	–	0.45	–
